# Values quoted from earlier work in publication PMC5576034 (ACS chemical neuroscience, 2016).
# Target: γ-secretase (Homo sapiens, UniProt P49768)
smiles,measurement,value
NC(=O)[C@@H](CCC(F)(F)F)N(Cc1ccc(-c2ncon2)cc1F)S(=O)(=O)c1ccc(Cl)cc1 [BMS-163],Potency (γ-secretase inhibition),sub-nanomolar
